As a reminder, the IC50 is the concentration at which inhibition is half-maximal. The half-life is the time needed for the level to fall by half in the phase considered. Higher therefore signals slow loss. What is called solubility is the dissolved amount per volume that the medium holds. Low readings indicate little dissolved substance, high ones much dissolved substance. Usually clearance stands for the rate of elimination divided by the concentration. Lower therefore signals a low capacity for elimination.

Converted amounts (≈) assume the structure as drawn. Where only a bound is given, the exact number is not on record here.

Data set [1] deals with Mitogen-activated protein kinase 8 (Homo sapiens, UniProt P45983). Put plainly: Inhibition of full length Hexa-His-tagged JNK1 using GST-tagged cJun and [gamma33P]ATP as substrate after 60 mins by scintillation counting.
Mitogen-activated protein kinase 8, sequence (P45983 whole entry): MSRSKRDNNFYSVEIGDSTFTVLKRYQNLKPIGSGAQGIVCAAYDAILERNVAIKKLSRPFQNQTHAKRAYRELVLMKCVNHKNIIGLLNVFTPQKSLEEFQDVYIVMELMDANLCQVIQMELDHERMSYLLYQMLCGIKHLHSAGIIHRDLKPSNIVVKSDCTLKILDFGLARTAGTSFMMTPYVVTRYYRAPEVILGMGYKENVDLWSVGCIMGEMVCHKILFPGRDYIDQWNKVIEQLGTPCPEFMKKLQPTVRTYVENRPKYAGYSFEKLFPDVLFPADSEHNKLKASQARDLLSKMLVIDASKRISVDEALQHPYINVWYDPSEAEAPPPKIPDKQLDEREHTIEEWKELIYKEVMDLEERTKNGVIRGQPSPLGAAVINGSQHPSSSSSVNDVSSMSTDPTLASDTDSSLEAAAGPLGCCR
Data set [2] has as its target Mitogen-activated protein kinase 9 (Homo sapiens, UniProt P45984). Put plainly: Inhibition of full length Hexa-His-tagged JNK2 using GST-tagged cJun and [gamma33P]ATP as substrate after 60 mins by scintillation counting.
For data set [3], the target named is Mitogen-activated protein kinase 10 (Homo sapiens, UniProt P53779). Nature of the data set: Inhibition of full length Hexa-His-tagged JNK3 using GST-tagged cJun and [gamma33P]ATP as substrate after 60 mins by scintillation counting.
Mitogen-activated protein kinase 10, sequence (P53779 whole entry): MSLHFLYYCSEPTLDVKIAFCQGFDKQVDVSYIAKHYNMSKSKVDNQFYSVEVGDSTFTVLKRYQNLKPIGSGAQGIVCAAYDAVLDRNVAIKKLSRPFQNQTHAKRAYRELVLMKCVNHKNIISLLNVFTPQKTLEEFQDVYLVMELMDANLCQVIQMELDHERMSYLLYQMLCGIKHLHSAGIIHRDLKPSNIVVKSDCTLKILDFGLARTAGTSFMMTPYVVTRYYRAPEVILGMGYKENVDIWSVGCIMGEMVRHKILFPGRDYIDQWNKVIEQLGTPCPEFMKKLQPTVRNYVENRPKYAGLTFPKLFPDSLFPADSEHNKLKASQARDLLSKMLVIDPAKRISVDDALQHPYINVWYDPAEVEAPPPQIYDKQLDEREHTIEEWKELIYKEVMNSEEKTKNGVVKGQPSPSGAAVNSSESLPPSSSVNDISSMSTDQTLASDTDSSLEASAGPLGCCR
The target in data set [4] is Mitogen-activated protein kinase 14 (Homo sapiens, UniProt Q16539). Nature of the data set: Inhibition of p38alpha using MBP and [gamma33P]ATP as substrate after 60 mins by scintillation counting.
Mitogen-activated protein kinase 14, sequence (Q16539 whole entry): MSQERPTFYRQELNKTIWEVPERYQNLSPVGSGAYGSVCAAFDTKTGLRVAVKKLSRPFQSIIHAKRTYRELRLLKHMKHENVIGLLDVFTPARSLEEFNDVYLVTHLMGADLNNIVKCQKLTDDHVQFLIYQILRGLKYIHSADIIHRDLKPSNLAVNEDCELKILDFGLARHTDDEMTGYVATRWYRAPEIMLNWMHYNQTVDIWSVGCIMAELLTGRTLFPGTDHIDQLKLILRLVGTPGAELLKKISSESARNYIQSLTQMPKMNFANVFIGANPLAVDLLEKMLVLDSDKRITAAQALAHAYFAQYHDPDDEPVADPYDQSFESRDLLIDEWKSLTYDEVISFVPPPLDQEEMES
Data set [5] is described as follows: Metabolic stability in rat liver S9 fraction assessed as compound remaining after 60 mins. It is filed as ADME, subcellular. The conditions noted are these: read-out: Stability.
A short description of data set [6]: Metabolic stability in human liver S9 fraction assessed as compound remaining after 60 mins. The conditions noted are these: read-out: Stability. It is filed as ADME, subcellular.
Data set [7] in a line: Half life in human microsomes. In kind it is ADME, Microsome.
Data set [8] is described as follows: Half life in rat microsomes. It is filed as ADME, Microsome.
Data set [9] in a line: Aqueous solubility of the compound at pH 7.4. It is filed as physicochemical.
Data set [10] is described as follows: Thermodynamic solubility of the compound at pH 5. It is filed as physicochemical. As to conditions: buffer, read-out: Therm_solubility.
Data set [11] concerns the target c-Jun N-terminal kinase, JNK (Homo sapiens, UniProt P45983+P53779+P45984). Nature of the data set: Inhibition of JNK-mediated cJun phosphorylation in anisomysin-stimulated human Jurkat T cells pretreated for 30 mins before anisomysin stimulation measured after 10 mins by DELFIA assay. In kind it is cell-based.
The nature of data set [12]: Clearance in rat at 2 to 10 mg/kg, iv. It is filed as ADME, organism-based. As to conditions: in vivo. On the set-up: dose 2-10 mg/kg, route intravenous.
Data set [13] is described as follows: Volume of distribution at steady state in rat at 2 to 10 mg/kg, iv. In kind it is ADME, organism-based. On the set-up: dose 2-10 mg/kg, route intravenous. The conditions noted are these: in vivo, read-out: Vdss.
The nature of data set [14]: Aqueous solubility of the compound at pH 5. It is filed as physicochemical.

Mitogen-activated protein kinase 9, sequence (P45984 whole entry): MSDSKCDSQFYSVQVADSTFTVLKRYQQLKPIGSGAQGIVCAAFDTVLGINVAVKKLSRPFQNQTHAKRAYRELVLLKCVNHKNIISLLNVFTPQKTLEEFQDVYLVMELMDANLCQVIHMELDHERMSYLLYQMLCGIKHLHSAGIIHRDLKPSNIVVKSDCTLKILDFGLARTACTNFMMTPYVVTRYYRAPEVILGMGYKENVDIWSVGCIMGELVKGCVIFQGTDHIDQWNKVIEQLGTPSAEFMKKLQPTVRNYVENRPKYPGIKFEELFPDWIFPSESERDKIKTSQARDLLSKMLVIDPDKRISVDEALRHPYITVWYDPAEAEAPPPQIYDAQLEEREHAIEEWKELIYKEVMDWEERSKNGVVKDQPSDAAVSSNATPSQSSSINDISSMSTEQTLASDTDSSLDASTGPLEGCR

For the compound `COc1ccc(Nc2ncc3nc(Nc4ccccc4)n(C4CCCC4)c3n2)cc1`, the 50% inhibitory concentration (IC50) is > 10000 nM in data set [1], 800 nM in data set [2], > 1000 nM in data set [3] and > 30000 nM in [4]. Further, the remaining at 1 h in data set [5] and in [6] was > 70% in each case.
`COc1ccc(Nc2ncc3nc(Nc4ccccc4F)n(C4CCCC4)c3n2)cc1`: the half-life in data set [7] turned out to be 1.03 h; in data set [8] it was 1.68 h. In addition, the IC50 in data set [1] is 1100 nM; in data set [2] it was 120 nM; in data set [4], > 3000 nM. In [9], the concentration in solution (solubility) was 447 µg/mL (≈ 1070 µM). Further, the remaining at 1 h in data set [5] was determined as 35%; in [6], 86%.
Consider `COc1ccc(Nc2ncc3nc(Nc4ccccc4Cl)n(C4CCCC4)c3n2)cc1`, for which the IC50 was > 10000 nM in [1], > 10000 nM in data set [2], > 10000 nM in data set [3] and > 30000 nM in data set [4]. The remaining at 1 h in data set [5] and in data set [6] was > 70% each time.
For the compound `COc1ccc(Nc2ncc3nc(Nc4ccc(F)cc4F)n(C4CCCC4)c3n2)cc1`, the IC50 came to 2500 nM in data set [1], 130 nM in data set [2], 140 nM in data set [3] and 1300 nM in data set [4]. For the same compound, the remaining at 1 h in data set [5] and in [6] was > 70% throughout.
As for `COc1ccc(Nc2ncc3nc(Nc4c(F)cccc4F)n(C4CCCC4)c3n2)cc1`, the IC50 stood at 1100 nM in data set [1], 46 nM in data set [2], 130 nM in data set [3] and 3500 nM in data set [4]. Further, the remaining at 1 h in [5] and in [6] was > 70% throughout.
Turning to `CNc1ncc2nc(Nc3ccccc3F)n(C3CCCC3)c2n1`, the IC50 in [1] is 6300 nM; in data set [2], 360 nM; in [3] it was 680 nM; in data set [4], > 30000 nM.
For `CCNc1ncc2nc(Nc3ccccc3F)n(C3CCCC3)c2n1`, the IC50 in data set [1] worked out at 1800 nM; in data set [2], 140 nM; in data set [3] it was 260 nM; in [4], 2600 nM.
Turning to `CC(C)Nc1ncc2nc(Nc3ccccc3F)n(C3CCCC3)c2n1`, the IC50 in data set [1] was determined as 800 nM; in [2] it was 66 nM; in [3], 110 nM; in data set [4], 1200 nM.
`Fc1ccccc1Nc1nc2cnc(NC3CCCCC3)nc2n1C1CCCC1`: the IC50 in data set [1] turned out to be 580 nM; in data set [2], 46 nM; in [3], 50 nM; in data set [4] it was 1500 nM.
For `O[C@H]1CC[C@H](Nc2ncc3nc(Nc4ccccc4F)n(C4CCCC4)c3n2)CC1`, the 50% inhibitory concentration (IC50) amounted to 75 nM in data set [1], 10 nM in [2], 12 nM in data set [3] and 510 nM in data set [4]. Besides, the solubility in data set [9] was < 2.5 µg/mL.
For the compound `N[C@H]1CC[C@H](Nc2ncc3nc(Nc4ccccc4F)n(C4CCCC4)c3n2)CC1`, the solubility thermodynamic in data set [10] came to 869 µg/mL (≈ 2120 µM). In addition, the IC50 in [1] stood at 230 nM; in [2] it was 26 nM; in data set [3] it was 31 nM; in data set [4], 210 nM; in data set [11], 300 nM.
As to `CCn1c(Nc2ccccc2F)nc2cnc(Nc3ccc(OC)cc3)nc21`, the IC50 was 3600 nM in [1], 430 nM in data set [2], 360 nM in data set [3] and 9300 nM in data set [4].
In the same order, the values of `COc1ccc(Nc2ncc3nc(Nc4ccccc4F)n(C(C)C)c3n2)cc1` are 840 nM, 83 nM, 96 nM and 2100 nM.
For `COc1ccc(Nc2ncc3nc(Nc4ccccc4F)n(C4CCCCC4)c3n2)cc1`, the IC50 in data set [1] was 2900 nM; in data set [2] it was 140 nM; in [3], 360 nM; in data set [4], > 3000 nM.
For the compound `COc1ccc(Nc2ncc3nc(Nc4ccccc4F)n(-c4ccccc4)c3n2)cc1`, the IC50 in data set [1] was > 10000 nM; in data set [2], 1000 nM; in data set [3], > 300 nM; in data set [4] it was > 3000 nM.
Take `COc1ccc(Nc2ncc3nc(Nc4ccccc4F)n([C@H]4CC[C@H](N)CC4)c3n2)cc1`: the IC50 in data set [1] was 2600 nM; in data set [2] it was 240 nM; in data set [3] it was 240 nM; in data set [4], 210 nM.
Regarding `COc1ccc(Nc2ncc3nc(Nc4ccccc4F)n([C@H]4CC[C@@H](O)CC4)c3n2)cc1`, the IC50 is 160 nM in [1], 14 nM in data set [2], 17 nM in data set [3] and 1600 nM in data set [4].
The matching figures for `COc1ccc(Nc2ncc3nc(Nc4ccccc4F)n(C4CCOCC4)c3n2)cc1`: 490 nM, 52 nM, 63 nM and 2800 nM.
As for `COc1ccc(Nc2ncc3nc(Nc4ccccc4F)n([C@H]4CC[C@@H](C(N)=O)CC4)c3n2)cc1`, the IC50 was determined as 180 nM in data set [1], 22 nM in data set [2], 24 nM in data set [3] and 240 nM in data set [4].
For the compound `N[C@H]1CC[C@H](Nc2ncc3nc(Nc4c(F)cccc4F)n(C4CCCC4)c3n2)CC1`, the solubility thermodynamic in data set [10] was determined as 852 µg/mL (≈ 1990 µM). Also, the IC50 in data set [1] is 91 nM; in data set [2] it was 9 nM; in data set [3], 13 nM; in data set [4] it was 490 nM; in [11] it was 210 nM. For the same compound, the clearance in [12] was found to be 118 mL/min/kg. The Vd in data set [13] turned out to be 66 L/kg.
As to `N[C@H]1CC[C@H](Nc2ncc3nc(Nc4c(F)cc(F)cc4F)n(C4CCCC4)c3n2)CC1`, the solubility thermodynamic in [10] was > 1000 µg/mL. For the same compound, the IC50 in data set [1] turned out to be 150 nM; in data set [2] it was 11 nM; in data set [3] it was 16 nM; in data set [4] it was 490 nM; in data set [11] it was 240 nM. The compound also registered a clearance in data set [12] of 88 mL/min/kg. The Vd in data set [13] was determined as 90 L/kg.
On to `Cl.N[C@H]1CC[C@H](Nc2ncc3nc(Nc4ccc(F)cc4F)n(C4CCCC4)c3n2)CC1`, for which, in data set [14], the solubility worked out at 5.7 µg/mL.

The record behind these values is ChEMBL document CHEMBL1944604, “Aminopurine based JNK inhibitors for the prevention of ischemia reperfusion injury” (Bioorg Med Chem Lett, 2012).
